From US8962322B2, “Enhancers of induced pluripotent stem cell reprogramming” (City of Hope, priority 2012, dated 2015)
Like-named read-outs stand apart in the source and are kept apart here.

Experiments:
MEFs = settings: OSKM, seeding 2.7 × 10^5, day 8, reference (2) Huangfu 2008; cited from earlier work
[1] = day 8 post-infection of reprogramming factors; cited from earlier work
human Nanog promoter = experiment: Nanog-luc luciferase reporter assay (stably transfected CV1 cells); assay type: cell-based; settings: for induction of Nanog-luc, comparison with known reprogramming enhancers (in words): OAC1 1 μM, BIO 2 μM, BIX 2 μM, AzaC 2 μM, Vc 25 μg/ml, Am580 10 nM, tranylcypromine 5 μM, VPA 0.5 mM, two days
Procedure: Oct4, Sox2, and Nanog form a positive regulatory loop to regulate the expression of each other, and Nanog is considered a downstream target gene of Oct4 and Sox2 (37). Therefore, activation of Nanog promoter was used as a validation assay for the identified compounds. Specifically, the Oct4 promoter-activating compounds were tested to ascertain whether they activate a human
Nanog promoter-driven luciferase reporter gene using in triplicate luciferase reporter assays.
(§1) Then the promoter sequences were cloned into pGL4.4-luc-Hyg vector (Promega) to get Oct4-luc or Nanog-luc construct and the fidelity of the Oct4 and Nanog promoter DNA sequences was confirmed by bi-directional sequencing. CV 1 cells were transfected with the Oct4-luc or Nanog-luc constructs and the stably-transfected cells were selected by hygromycine resistance.
(§2) Luciferase Reporter Assays: The Oct4-luc or Nanog-luc cells were treated with compound OAC 1 or its structural analogs at 1 μM concentration or at indicated concentrations in triplicates. Other compounds used include 2 μM BIO, 2 μM BIX, 2 μM
(§3) AzaC, 25 μg/ml Vc, 10 nM Am580, 5 μM tranylcypromine, and 0.5 mM VPA. Luciferase reporter assays were performed as described (51) 24 hr after compound treatment or at indicated time points. For Topflash reporter assays, 0.2 μg β-catenin-responsive Topflash reporter gene plasmid was introduced into CV1 cells using trasfection (Bio-Rad). Compounds were added 6 hr after transfection. Luciferase activity was measured 48 hr after compound treatment using the Glo Luciferase Assay System (Promega).

human Oct4 promoter = experiment: Oct4-luc luciferase reporter assay (stably transfected CV1 cells); assay type: cell-based; settings: for induction of Oct4-luc, comparison with known reprogramming enhancers (in words): OAC1 1 μM, BIO 2 μM, BIX 2 μM, AzaC 2 μM, Vc 25 μg/ml, Am580 10 nM, tranylcypromine 5 μM, VPA 0.5 mM, two days; for fold induction at 1 µM: compound at 1 μM, Oct4-luc cells, triplicates
Source text: A high-throughput screening scheme was designed to identify Oct4 promoter-activating compounds using a luciferase reporter under the control of the human Oct4 promoter (Oct4-luc). […] A stable cell line (Oct4-luc) that expresses luciferase reporter driven by the exogenous Oct4 promoter was established using hygromycin-resistance as a selection marker. These Oct4-luc cells were used for high-throughput screening of a chemical library of 80,000 compounds. The luciferase reporter activity was measured 24 hr after compound treatment. Solvent treatment was included as a negative control.
as §1
Compound Screening: The Oct4-luc cells were seeded at 1.75×10^4 cells per well density into 96-well plates. Compounds were added to cells one day after cell seeding at the concentration of 10 μM for 24 hr in the High-Throughput Screening core facility at City of Hope. Compounds that induced luciferase activity 3-fold or more were selected for further validation in both Oct4-luc and Nanog-luc cells.
as §2, §3

[2] = test system: mouse embryonic fibroblasts (MEFs); experiment: iPSC derivation from 4F (OSKM)-transduced MEFs in mouse ESC media; assay type: cell-based; settings: 4F+OAC
Procedure: The generation of iPSCs is a gradual process with relatively low efficiency. Since Oct4 is central to the reprogramming process (35, 36, 38), it was hypothesized that compounds that activate Oct4 transcription may facilitate iPSC generation by enhancing reprogramming efficiency. Reprogramming of mouse embryonic fibroblasts (MEFs) was performed with the 4F reprogramming quartet Oct4, Sox2, Klf4, and c-Myc, along with solvent control, OAC1 or its structural analogs OAC2 and OAC3. The same number of starting MEFs and the same viral stocks were used for each treatment. Two days after viral transduction, the 4F-transduced cells were seeded onto feeder cells in mouse ESC culture media, and this day was designated as day 0 (FIG. 2D). Compound treatment started on day 0 and lasted for 7 days. By counting the number of clones with ESC-like morphology at day 18, both OAC1 and its analogs OAC2 and OAC3 enhanced the 4F-induced reprogramming efficiency considerably. The number of colonies with ESC-like morphology (FIG. 2E) increased 2-fold or more in 4F plus OAC (4F+OAC) treatment, compared to the 4F treatment alone (FIG. 2F, Table 3).
iPSC Derivation in Mouse ESC Media: OG2/R26MEFs were seeded onto […] at the density of 4×10^4 cells per well in DMEM medium with 10% FBS, 0.1 mM non-essential amino acids (NEAA), and 0.1 mM L-glutamine, 24 hr before transduction. Freshly concentrated viruses of the four factors, Oct4, Sox2, c-Myc, and Klf4, were added to the cells. Two days after viral infection, the viral-transduced OG2/R26MEFs were split into new 6-well plates with irradiated MEF feeder cells and cultured in mouse ESC culture medium containing 15% ESC qualified FBS, 2 mM L-glutamine, 0.1 mM 2-mercaptoethanol, 0.1 mM NEAA, 1 mM sodium pyruvate and 1000 U/ml of leukemia inhibitory factor (LIF), and this day was defined as day 0. 1 μM of each compound (OAC1, OAC2, and OAC3) was added to the 4F-transduced cells at day 0 and treatment was continued for 1 week. When iPSC colonies emerged, these colonies were picked for expansion on irradiated MEF feeders in mouse ESC medium.

[3] = test system: human fibroblast cells (IMR90); experiment: human iPSC derivation from 4F (OSKM)-transduced IMR90 fibroblasts; assay type: cell-based
Procedure: It has been shown that compound OAC1 (Oct4-activating compound I) and two of its structural analogs OAC2 and OAC3 can enhance reprogramming efficiency, when added to the reprogramming mixture along with the four transcription factors, Oct4, Sox2, Klf4, and c-Myc (OSKM), in mouse system. The OAC compounds were tested to determine if they can enhance reprogramming efficiency in human system. The reprogramming process was performed as described in the diagram (FIG. 14a). Briefly, human fibroblast cells (IMR90) were induced to reprogram into induced pluripotent stem cells (iPSCs) using the four reprogramming factors (4F), OSKM. The day when the cells were transduced with the four reprogramming factors was referred to as day 0. Cells were cultured in IMR90 media for six days. On day 6, the transduced cells were split and seeded onto feeders. On day 7, IMR90 culture media was changed to hESC culture media and started compound treatment. Compound treatment was lasted for one week. Cells were monitored for the appearance of human embryonic stem cell (ESC)-like colonies. On day 9, several small human ESC-like colonies appeared in both 4F+OAC1 and 4F+OAC2-treated cells, however, human ESC-like colonies were not observed in 4F+vehicle (4F)-treated cells until day 11. To determine the effect of OAC on the efficiency of human iPSC derivation, the number of human ESC-like colonies were counted under all three conditions at day 18. Both OAC 1 and its structural analog OAC2 increased the number of human ESC-like colonies more than two-fold (FIG. 14b, c). The human ESC-like colonies were picked from either 4F or 4F+OAC-treated cells and expanded under human ESC culture conditions. These cells were able to expand and stably produce human iPSC clones with characteristic human ESC-like morphology (FIG. 14d).

[4] = test system: β-catenin-responsive reporter gene Topflash; experiment: Topflash luciferase reporter assay in CV1 cells (Wnt signaling); assay type: cell-based; settings: 1 μM OAC1 or 2 μM BIO, 48 hr
Procedure: Whether OAC1 regulates major signaling pathways that are critical for embryonic stem cell pluripotency was investigated. […] CV1 cells were transfected with the β-catenin-responsive reporter gene Topflash, and the transfected cells were treated with vehicle control or OAC1 (FIG. 6C). The glycogen synthase kinase 3β (GSK3β) inhibitor BIO was included as a positive control (42).
as §3

For `CCCC(CCC)C(=O)O` [VPA, valproic acid], the Colony numbers (MEFs) is given as 241, the Reprogramming efficiency (MEFs) is given as 0.089% and the “increase in reprogramming efficiency in iSF1 media” value [1] is given as 2 fold. For the same compound, the “induction of Nanog-luc, comparison with known reprogramming enhancers (in words)” value (human Nanog promoter) was “no significant effect” and the “induction of Oct4-luc, comparison with known reprogramming enhancers (in words)” value (human Oct4 promoter) was “no significant effect”.

For `O=C(Nc1ccc2[nH]ccc2c1)c1ccccc1` [OAC2, N-(1H-indol-5-yl)benzamide], the “advance of the appearance of putative iPSC colonies compared to 4F only reprogramming” value [2] was “about three to four”, the “day at which human ESC-like colonies appeared” value ([3]; IMR90, 4F+compound, day 0 = transduction, 4F+vehicle day 11) was 9 days and the “increase in the number of human ESC-like colonies” value ([3]; IMR90, day 18, versus 4F) was “more than two”. The fold induction at 1 µM (human Nanog promoter; Chlorocebus aethiops, CV-1, compound at 1 μM, Nanog-luc cells, triplicates) was 3.9, the fold induction at 1 µM (human Oct4 promoter; Homo sapiens, CV-1, 24 h, read-out: Oct4-luc Activity) was ≥ 1.8 and the fold induction at 1 µM (human Oct4 promoter; read-out: Oct4-luc fold Induction) was 3.6.

In the case of `O=C1Nc2cc(Br)ccc2/C1=C1/Nc2ccccc2/C1=N\O` [BIO, reference compound], the “effect on Topflash reporter activity” value [4] was “activated the Topflash reporter potently”, the “induction of Nanog-luc, comparison with known reprogramming enhancers (in words)” value (human Nanog promoter) was “lower level induction” and the “induction of Oct4-luc, comparison with known reprogramming enhancers (in words)” value (human Oct4 promoter) was “lower level induction”.

In the case of `CC(/C=C/C(=O)NO)=C\[C@@H](C)C(=O)c1ccc(N(C)C)cc1` [TSA], the “increase in reprogramming efficiency in iSF1 media” value [1] is listed as 2 fold.
